Measurements as given in article PMC11321677, “Reversing MET‐Mediated Resistance in Oncogene‐Driven NSCLC by MET‐Activated Wnt Condensative Prodrug” (Advanced Science, 2024).
Values belong to the compound of their own block, whether it stands above or below them. Non-standard residues stand in square brackets, D forms with d. Residues, ends and D or L forms follow the SMILES beside them.

What was measured:
[1] = test system: PC-9 OE cells (MET overexpression); test: alamarBlue cell viability; type: cell-based
Description: 1 × 10^8 transducing units (TU) of lentivirus were mixed with 40 µL of HitransG P (PC‐9) or HitransG A (NCI‐H1975) infection enhancement solution and 1 mL of complete medium to infect cells in a 6‐well plate.
In the presented cell experiments, Savolitinib was administered in combination with Gefitinib or Osimertinib at a concentration of 10 µM. The cell viability was determined by alamarBlue assay (Thermo Fisher Scientific).

PC-9 OE cell xenografts = test: PC-9 OE NSCLC cell xenograft mouse model; type: in vivo, BALB/c nude mice; conditions: PC-9 OE xenograft, 3 mg kg−1 tail vein every two days, five injections
Excerpt: To evaluate the inhibitory impact of WntSI on the Wnt/β‐catenin pathway in vivo, we established a model of PC‐9 OE cell xenografts in BALB/c nude mice (Figure S12A, Supporting Information). […] In addition, we evaluated the drug safety of CA and WntSI, including recording the weight fluctuation of mice during the treatment period as well as the detection of hematological and biochemical indicators (Figure S12F–H, Supporting Information). […] Furthermore, we conducted IHC staining and IHC scoring (Figure 5F,G) to explore the expression of c‐Met, β‐catenin pathway‐associated proteins, as well as Ki67 in the tumor tissues. […] In addition, we closely monitored the fluctuations in body weight among the four groups of mice throughout the course of treatment (Figure 5H).
5×10^6 PC‐9 OE cells were subcutaneously injected into the right flanks of BALB/c nude mice aged 5–6 weeks. The tumor volume was calculated using the equation: volume = 1/2 × length × width^2. Once the tumor volume reached 150–180 mm^3, the mice were randomly grouped. The specific groups are as follows: 1) control (PBS), CA (3 mg kg^−1), and WntSI (3 mg kg^−1); the drug was administered via tail vein every two days for a total five injections; 2) control (normal saline), Gefitinib (25 mg kg^−1 d^−1), Gefitinib combined with Savolitinib (2.5 mg kg^−1 d^−1), and Gefitinib combined with WntSI (3 mg kg^−1, every two days) groups; normal saline, Gefitinib, and Savolitinib were administered by daily gavage, while WntSI was administered via tail vein injection every two days. Tumor growth was monitored daily, and xenografts were collected for formalin‐fixed‐paraffin embedded (FFPE) or snap frozen in liquid nitrogen for subsequent experiments.

[2] = test system: PC-9 OE and NCI-H1975 OE cells; test: Colony formation assay; type: cell-based; conditions: 7–10 days, n = 3
Description: The PC‐9 OE and NCI‐H1975 OE cells were seeded at a low density and cultured in serum‐rich medium containing drugs for 7–10 days to assess clone formation. Subsequently, the culture medium was discarded, and the cell colonies were fixed with methanol, stained with 0.1% crystal violet, and washed with distilled water until the background was clear. The number of colonies was quantified using Image J software.

c-Met = target: T1, c-Met (Homo sapiens, UniProt P08581); test: Biotin affinity purification (pull-down) assay; type: binding; conditions: biotin-labeled Tyr-Pep on streptavidin magnetic beads, lysed PC-9 OE cells, 4 °C, 6 h, western blotting
T1 construct: host or cells: PC-9 OE (PC-9 cells stably transduced with MET OE lentivirus)
T1 sequence (P08581 25-1390): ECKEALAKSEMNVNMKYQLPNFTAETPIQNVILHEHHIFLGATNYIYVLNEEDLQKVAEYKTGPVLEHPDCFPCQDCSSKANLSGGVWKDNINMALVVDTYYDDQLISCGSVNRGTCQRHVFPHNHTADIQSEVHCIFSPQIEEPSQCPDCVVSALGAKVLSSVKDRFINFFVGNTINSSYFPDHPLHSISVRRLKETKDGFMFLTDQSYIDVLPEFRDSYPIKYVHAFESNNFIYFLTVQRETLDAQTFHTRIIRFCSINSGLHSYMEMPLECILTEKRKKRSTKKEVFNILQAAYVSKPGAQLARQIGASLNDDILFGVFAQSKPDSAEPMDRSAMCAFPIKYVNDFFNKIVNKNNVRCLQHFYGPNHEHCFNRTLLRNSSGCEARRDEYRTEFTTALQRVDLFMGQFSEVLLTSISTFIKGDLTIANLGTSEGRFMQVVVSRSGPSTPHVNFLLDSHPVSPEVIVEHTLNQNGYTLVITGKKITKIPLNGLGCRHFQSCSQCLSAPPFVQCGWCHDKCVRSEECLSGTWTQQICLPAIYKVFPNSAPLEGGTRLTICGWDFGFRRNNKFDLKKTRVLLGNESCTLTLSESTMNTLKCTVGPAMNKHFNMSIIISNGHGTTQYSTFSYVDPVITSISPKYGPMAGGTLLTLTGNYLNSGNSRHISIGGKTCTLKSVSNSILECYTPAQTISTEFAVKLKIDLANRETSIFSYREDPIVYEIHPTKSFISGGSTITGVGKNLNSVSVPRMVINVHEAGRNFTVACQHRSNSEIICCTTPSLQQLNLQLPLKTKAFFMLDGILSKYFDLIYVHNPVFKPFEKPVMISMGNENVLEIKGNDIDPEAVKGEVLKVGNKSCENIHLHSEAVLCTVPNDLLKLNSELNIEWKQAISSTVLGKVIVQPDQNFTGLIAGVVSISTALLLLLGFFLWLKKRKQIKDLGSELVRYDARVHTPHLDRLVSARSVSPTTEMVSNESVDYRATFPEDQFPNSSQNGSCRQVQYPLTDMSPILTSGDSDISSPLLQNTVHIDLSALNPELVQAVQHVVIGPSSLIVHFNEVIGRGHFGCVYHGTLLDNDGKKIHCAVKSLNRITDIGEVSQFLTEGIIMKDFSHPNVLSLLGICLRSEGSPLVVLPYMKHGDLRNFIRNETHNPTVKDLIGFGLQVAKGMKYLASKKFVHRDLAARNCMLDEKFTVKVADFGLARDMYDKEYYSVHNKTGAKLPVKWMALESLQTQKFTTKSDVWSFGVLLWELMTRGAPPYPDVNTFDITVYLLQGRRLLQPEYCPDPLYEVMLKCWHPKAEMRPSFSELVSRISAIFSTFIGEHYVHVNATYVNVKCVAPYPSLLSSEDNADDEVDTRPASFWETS
Excerpt: The process was successfully replicated through a coarse‐grained dynamic simulation involving the interaction between Tyr‐Pep and CA molecules, wherein the emergence of LLPS and subsequent self‐assembly into a condensate were observed (Figure 3B). […] Next, the mass ratio of 1:0.5 (Tyr‐Pep to CA) was selected for the preparation of the Wnt supramolecular inhibitor, WntSI, in order to maximize the utilization of condensate size for passive tumor targeting. […] Furthermore, the successful assembly of WntSI was once again confirmed by both Fourier‐transform infrared (FT‐IR) spectrum analysis (Figure S5C, Supporting Information) and UV–vis absorption spectrum analysis (Figure S5D, Supporting Information), providing compelling evidence through the presence of characteristic absorption peaks associated with peptide and CA. More importantly, as our design WntSI was constructed by a reversible supramolecular self‐assembly driven by LLPS, which can disassemble in response to MET (Figure 3A). Alpha Fold 2.0 accurately predicted the strong bonding ability between Tyr‐Pep and c‐Met, as depicted in Figure 3D. This prediction was further substantiated through co‐immunoprecipitation analysis involving biotin‐labeled Tyr‐Pep and c‐Met, as illustrated in Figure S5E (Supporting Information). […] The concentration of CA in their supernatant after centrifugation at 15 000 g was measured using HPLC. […]

SMILES: C[C@@H](c1ccc2nccn2c1)n1nnc2ncc(-c3cnn(C)c3)nc21 [Savolitinib]
Impact on the susceptibility of EGFR-TKIs [1]: negligible impact

Weight growth rate of mice during treatment (PC-9 OE cell xenografts; n = 5): slowed down
SMILES: CC(C)c1cc2c(c(O)c1O)[C@@]1(C(=O)O)CCCC(C)(C)[C@@H]1CC2 [CA, carnosic acid]
Levels of ALT and AST (PC-9 OE cell xenografts; n = 3): varying degrees of increase | Levels of white blood cells (WBC), neutrophils and platelets (PC-9 OE cell xenografts; n = 3): significantly lower than those of the control group

Co-immunoprecipitation with c-Met (c-Met): can be recognized by c‐Met
SMILES: CC[C@H](C)[C@H](NC(=O)[C@H](CC(C)C)NC(=O)[C@H](CC(N)=O)NC(=O)[C@@H](NC(=O)[C@@H](CCC(=O)O)NC(=O)[C@@H](Cc1c[nH]cn1)NC(=O)[C@@H](CCC(=O)O)NC(=O)[C@@H](Cc1c[nH]cn1)NC(=O)[C@@H](CCC(=O)O)NC(=O)[C@H](N)Cc1c[nH]cn1)C(C)C)C(=O)N[C@@H](CC(N)=O)C(=O)N[C@@H](Cc1ccc(O)cc1)C(=O)N[C@@H](CCC(N)=O)C(=O)N[C@@H](CC(=O)O)C(=O)N[C@@H](CC(=O)O)C(=O)N[C@@H](C)C(=O)N[C@@H](CCC(=O)O)C(=O)N[C@@H](CC(C)C)C(=O)N[C@H](Cc1c[nH]cn1)C(=O)N[C@H](Cc1c[nH]cn1)C(=O)N[C@H](Cc1c[nH]cn1)C(=O)N[C@H](CCCNC(=N)N)C(=O)N[C@H](CCCNC(=N)N)C(=O)N[C@H](CCCNC(=N)N)C(=O)N[C@H](CCCNC(=N)N)C(=O)N[C@H](Cc1c[nH]cn1)C(N)=O [Tyr‐Pep] (H-[dH][dE][dH][dE][dH][dE]VNLINYQDDAEL[dH][dH][dH][dR][dR][dR][dR][dH]-NH2)
Suppressive effect on clone formation [2]: no impact
